Source: US10450322B2, “Low molecular weight derivatives of carboxamide halogenated porphyrins, namely chlorins and bacteriochlorins, and their applications thereof” (LUZITIN, S.A., priority 2015, dated 2019)

Tests used:
[1] = test system: CT26 subcutaneous tumors; experiment: In vivo antitumor PDT of CT26 subcutaneous tumors in BALB/c mice; conditions: 15 min drug-to-light interval
[2] = n-Octanol:PBS partition ratio (shake-flask); format: physicochemical
Excerpt: a modification of the shake-flask method was employed to determine the equilibrium concentrations of the photosensitizer in n-octanol and in phosphate-buffered saline (PBS) mixed in equal volumes, using the typical fluorescence band of the same photosensitizer and calibration curves.
This example describes the evaluation of in vitro phototoxicity of a carboxamide bacteriochlorin with formula IX after light irradiation, and their potential for PDT application in the treatment of acne vulgaris. The phototoxicity was measured according to the description in the Materials and Methods section. The n-octanol:PBS partition ratio of IX is POW=2.9±0.5. An adequate formulation for this carboxamide bacteriochlorin is PEG400:DMSO (55:45). The phototoxicity of the test compound is proportional to the inhibition of P. acnes viability relative to the non-treated control, and is represented in FIG. 5 in the form of CFU reduction as a function of photosensitizer concentration for the light doses of 4 and 10 J/cm^2.

[3] = Photobleaching (photodecomposition quantum yield); format: physicochemical; conditions: methanol:PBS (3:2)
[4] = Skin permeation: depth by confocal fluorescence microscopy; format: in vitro ADME, pig; conditions: in 90 minutes, topical formulation
Protocol: Skin permeation was evaluated using a topical formulation containing benzyl alcohol (23%), Kolliphor EL (17%), Transcutol (50%) and water (10%). The photosensitizer added to this formulation corresponded to 1.85% of the mass before its addition, and the gelling agent (Aerosil 200) added corresponded to 5% of the mass before its addition. The photosensitizer was first dissolved in Transcutol and exposed to 3 min of vortex and 5 min of ultrasounds. A mixture of benzyl alcohol and Kolliphor EL was then added. Immediately after, it was mixed in an IKA MIXER at 200 rpm for 5 min and water was added drop-by-drop for 10 min. Finally, the gelling agent, Aerosil 200, was mixed in and the microemulsion gel was obtained. Skin permeation studies were performed in pig skin using samples collected from 5 months old pigs. The hair was removed as well as the underlying fatty layer, before the permeation studies.
This example describes the permeation of carboxamide bacteriochlorin with formula IX in pig skin. The topical formulation and the animal model were described in the Materials and Methods section. The permeation was assessed both in terms of the amount of photosensitizer in the skin after designated times of contact between the topical formulation and the skin (incubation time) and in terms of the depth of the permeation in the skin. […]

[5] = Singlet oxygen quantum yield (phosphorescence at 1270 nm); format: physicochemical; conditions: in ethanol
Excerpt: The experiments were run at room temperature using the Nd-YAG laser Spectra-Physics Quanta-Ray GRC-130. The solutions were excited at 355 nm and the phosphorescence of singlet oxygen collected at 1270 nm in a Hamamatsu R5509-42 photomultiplier, cooled to 193 K in a liquid nitrogen chamber, after selection of the wavelength with a monochromator with 600 lines grading. Phenalenone was used as a reference of singlet oxygen generator. A Newport filter model 10LWF-1000-B was used in the emission to avoid scattering and fluorescence.
This is indicative of negligible aggregation between the molecules, which exist mostly as monomers at these concentrations in the solvents studied. Table 1 presents the infrared molar absorption coefficient (εmax) and wavelength maximum in ethanol of a typical carboxamide halogenated bacteriochlorin derivative of Formula (I). The same table also presents triplet lifetimes (τT) in air and N2 saturated solutions, fluorescence lifetime (τS), the quantum yields of fluorescence (ΦF), triplet state formation (ΦT), and singlet oxygen generation (ΦΔ) in ethanol, and photodegradation quantum yield (Φpd) in methanol:PBS (3:2). Triplet decays were clearly mono-exponential and in air-saturated ethanol the triplet lifetimes were in the range of 200 to 300 nanoseconds. […]

[6] = test system: A549 (human lung adenocarcinoma) cell line; experiment: In vitro phototoxicity / dark toxicity towards A549 cells; format: cell-based
Protocol: Phototoxicity towards cancer cell lines was evaluated in vitro using A549 (human lung adenocarcinoma) and CT26 (mouse colon adenocarcinoma) cell lines. The cells were cultured in Dulbecco's modified Eagles's medium (DMEM) supplemented with 10% heat-inactivated fetal bovine serum and 1% penicillin. Cells were plated at a density of 20,000/well and 15,000/well respectively, in flat-bottom 96-well plates. On the following day, diluted solutions of the test compound were prepared (1 mM stock) and added to the cells for 30-min incubation. […] The wells were washed two times with PBS and irradiated after 30-min of incubation using the LED light described above. Light dose was 1 J/cm^2. The medium was replaced with fresh one after irradiation and the plates were incubated for 24 h, at which time the cellular viability was assessed by resazurin method using a microplate spectrophotometer (Synergy HT Biotek).
This example describes the evaluation of in vitro phototoxicity of a carboxamide bacteriochlorin with formula IX after light irradiation, and their potential for PDT of cancer. The formulation employed was the same as that of Example 4. […] The phototoxicity was measured according to the description in the Materials and Methods section. The phototoxicity of the test compound was assessed in terms of the percentage of survival of the cells for various concentrations of the test compound incubated for 30 min, followed by washings with PBS, addition of the culture medium and illumination with a light dose of 1 J/cm^2.

For `CNC(=O)c1c2nc(c(-c3c(F)cccc3F)c3ccc(cc4nc(c(-c5c(F)cccc5F)c5ccc1[nH]5)CC4)[nH]3)CC2` [formula IX, 5-methylcarboxamide-10,20-bis-(2,6-difluorophenyl)bacteriochlorin], which cure ([1]; 0.15 mg/kg i.v., 40 J/cm^2) is on record?
Its cure is 100%.

What about the “tolerability of PDT” value ([1]; 0.15 mg/kg i.v., 40 J/cm^2) of the same molecule?
The value was “very well tolerated”.

And the tumor response ([1]; 0.15 mg/kg i.v., 40 J/cm^2)?
The tumor response was “complete regression”.

What about the “time post-PDT by which animals died of acute response to the treatment” value ([1]; 0.3 mg/kg i.v., 40 J/cm^2 at 749 nm) of the same molecule?
Its value is “less than 72 h”.

And the “Log POW” value [2]?
Its value is 2.9.

What about the “n-octanol:PBS partition ratio POW” value [2] of the same molecule?
The value was 2.9±0.5.

What about the “Φpd photodecomposition quantum yield” value [3] of the same molecule?
Its value is 1.5 10^−4.

And the “depth of penetration in the skin” value [4]?
Its value is 40 μm.

And the “ΦΔ singlet oxygen quantum yield” value [5]?
The value was 0.38.

And the IC50 ([6]; 30 min incubation, irradiated with 1 J/cm^2)?
The IC50 was 2.5 nM.

And the “photosensitizer concentration at which nearly all cells are killed” value ([6]; A549, 30 min incubation, 1 J/cm^2 (FIG. 6))?
The value was 50 nM.

And the “concentration with no signs of toxicity in the dark” value ([6]; A549, incubation in the dark for 30 min)?
Its value is “up to 40 μM”.
